In paper PMC7401407, “Development of WEE2 kinase inhibitors as novel non-hormonal female contraceptives that target meiosis” (Biology of Reproduction, 2020):
Entries after “also recorded” stand apart in the source; their conditions may differ.

How the values were obtained:
human WEE1 protein = test system: T1, human WEE1 protein; assay: ELISA of CDK1 phosphorylation (CycLex WEE1 Kinase Assay/Inhibitor Screening Kit), WEE1; type: biochemical; conditions: 1 μM inhibitor, 60 min at 30 °C
T1 construct: purchased MBL International CYE1172

recombinant WEE2 protein = test system: T2, recombinant WEE2 protein; assay: ELISA of CDK1 phosphorylation (CycLex kit), WEE2; type: biochemical, human; conditions: 1 μM inhibitor, 60 min at 30 °C
T2 construct: made in house

bovine oocytes = assay: Bovine in vitro fertilization (exit from metaphase II arrest); type: cell-based
HEK 293 cells = assay: Somatic cell proliferation assay (dye dilution, flow cytometry); type: cell-based
From the text: To determine off-target effects of inhibitors on somatic cell WEE1, a proliferation assay was used as previously reported [22]. […] Independent cell cultures were collected at 0-, 48-, 72-, and 96-h post loading with a membrane permeable fluorophore, cell trace violet dye (Cat# C34557; ThermoFisher, Waltham, MA), which diminishes in concentration within the cell after each progressive division. Duplicate samples were collected and fixed for analysis by flow cytometry.
To evaluate the biological off-target effect of candidate inhibitors on mitosis, we use somatic cell culture and flow cytometry to assess proliferation disruption. […] Prior to each culture experiment, we treat the cells with a membrane permeable fluorescent dye to track cellular division activity. As cells divide the dye becomes diluted and the fluorescent signal decreases. We use flow cytometry, with at least 20 000 events counted to measure fluorescence intensity to indicate changes in cell proliferation in the presence of inhibitors [38]. The more inhibitory a drug, the more dye will be retained in the cells and so comparison can be made to controls to determine the level of mitotic activity.

MYT1 (PKMYT1) = test system: MYT1 (PKMYT1); parameters: method as in PMID 28792760; conditions: direct binding studies; cited from earlier work

C=CCn1c(=O)c2cnc(Nc3ccc(N4CCN(C)CC4)cc3)nc2n1-c1cccc(C(C)(C)O)n1 [MK-1775, Adavosertib]
WEE1 phosphorylation activity of CDK1 (human WEE1 protein): significantly reduces; also recorded: significantly inhibits
WEE2 phosphorylation activity of CDK1 (recombinant WEE2 protein): significantly reduces; also recorded: significantly inhibits
proportion of oocytes undergoing normal fertilization (bovine oocytes; 1 μM prior to and during IVF): reduction in the proportion of oocytes undergoing normal fertilization
reduction of MII exit compared to DMSO (bovine oocytes; bovine oocytes co-cultured with inhibitor during IVF, N = 126): 16%
somatic cell division activity (mitosis) (HEK 293 cells; HEK 293, 0.01 μM): decrease in mitosis
somatic cell division activity (mitosis) (HEK 293 cells; HEK 293, 0.1 μM): decrease in mitosis
somatic cell division activity (mitosis) (HEK 293 cells; HEK 293, 1 μM): inhibited mitosis in somatic cell culture after 48 h; also recorded: arrested the cell culture
activity against MYT1 relative to WEE1 and WEE2 (MYT1 (PKMYT1)): significantly weaker activity
